Values of other authors as cited in US20160250154A1, “FILM DELIVERY SYSTEM FOR ACTIVE INGREDIENTS” (MonoSol Rx, LLC, priority 2013, published 2016).

Details: MSDS from PI Chemical

CCCCCCCCCCC(=O)O[C@H]1CC[C@H]2[C@@H]3CCC4=CC(=O)CC[C@]4(C)[C@H]3CC[C@]12C [Testosterone Undecanoate]
classification of solubility in water: insoluble in water
